This note sets out measurements from US6620583B2, “Diagnostic screens for type 1 diabetes (IDDM)” (Boston Medical Center Corporation, priority 1998, dated 2003).

Common to all, as to format: cell-based, human
Assay [1] concerns dermal fibroblasts from type I diabetic patients and matched controls. Put plainly: Bradykinin-induced Ca2+ mobilization in fura-2 AM loaded fibroblasts (fluorescence spectrophotometry). Here is the method:
The following examples describe novel findings upon which the present invention is based, at least in part. In particular, the present inventors have determined the effects of tumor necrosis factor alpha (TNF-α) treatment, and the diabetic environment (elevated glucose and fatty acid), on bradykinin-induced Ca^2+ mobilization in dermal fibroblasts from type I diabetic patients and matched controls. Fibroblasts were exposed to TNF-α (10 ng/ml) for up to 48 hours. Cells in suspension were then loaded with fura-2 acetoxymethyl ester, and bradykinin-induced Ca^2+ mobilization was measured using fluorescence spectrophotometry. […] With 24 hours of treatment, TNF-α-induced increments in peak bradykinin response were three-fold greater in diabetics than in controls (P<0.001).
Briefly, fibroblasts from 7 control and 10 diabetic donors (passages 7 to 30) were loaded with fura-2 AM and Ca^2+ mobilization in response to increasing concentrations of bradykinin was determined.
Briefly, paired flasks of cells were treated with TNF-α or left untreated. Fura-loaded cells were stimulated with 20 nM bradykinin and Ca^2+ mobilization was measured after 200 seconds. […] Fibroblasts were fura-2 AM loaded and Ca^2+ mobilization in response to increasing concentrations of bradykinin was determined. Each bar represents the mean of 14 to 33 separate determinations. In cells from both control and diabetic donors, TNF-α treatment augmented bradykinin induced Ca^2+ mobilization, although to a much greater extent in the diabetic donor. […] A small increase in the final equilibrium level of Ca^2+ was also seen consistently in the diabetic fibroblasts, but not in the controls.
The difference between control and diabetic cells can be seen more clearly through the bradykinin-induced increment between untreated and TNF-α treated. […] The change in peak response to bradykinin after TNF-α treatment was measures in fibroblasts from 7 control and 10 diabetic donors (3-8 separate experiments per donor). Each bar on the graph represents the mean of 14 to 34 separate determinations. […] ANOVA indicated an overall difference between control and diabetic (p<0.001), and specific differences between control and diabetic (Tukey p<0.001) at every bradykinin concentration above 1 nM.
Following the initial bradykinin induced peak of Ca^2+ mobilized from the ER, a sustained elevation of Ca^2+ occurs lasting for minutes. This sustained elevation in steady state Ca^2+ requires Ca^2+ entry from the extracellular space. Inappropriate elevation of Ca^2+ may lead to cell injury, apoptosis and death by activation of phospholipases, nucleases, and proteases (Cheung et al. (1986) N. Engl. J. Med. 314:1670-1676): thus, inappropriately elevated Ca^2+ in diabetic cells could be an important mechanisms for initiating diabetic pathology. Because of the important signal transducing properties of the sustained phase of the Ca^2+ response, the effects of TNF-α treatment on the steady state were examined. Briefly, fibroblasts from 7 control and 10 diabetic donors were exposed to 10 ng/ml TNF-α for 24 hours prior to bradykinin stimulation. The magnitude of the final steady state, or resting, intracellular [Ca^2+] following stimulation with bradykinin was determined. Each bar represents the mean of 14 to 34 separate determinations.
To determine whether the TNF-α induced increase in the peak bradykinin response was due to mobilization of Ca^2+ from intracellular stores, the Ca^2+ chelator EGTA was added prior to stimulation with bradykinin. FIG. 9 illustrates an experiment in which fibroblasts were treated with TNF-α for 24 hours or left untreated and the peak bradykinin response measured in the presence or absence of 2 mM EGTA. In these traces, 2 mM EGTA was added 10 seconds prior to stimulation with 200 nM bradykinin. The peak response was unaltered by EGTA in untreated and TNF-α treated cells. […]
For orientation: A change in cytosolic calcium serves as a functional read-out for many receptors and channels.

For assay [2], the system named is fibroblasts from control and IDDM donors. The experiment in a line: Thapsigargin-mediated emptying of intracellular Ca2+ stores in fura-loaded fibroblasts. How it is done:
Thapsigargin, an irreversible inhibitor of the intracellular Ca^2+-ATPase, was used to determine if the TNF-α induced increment in peak bradykinin response was mediated by changes in the bradykinin signal transduction cascade, or was at the level of the intracellular Ca^2+ stores by irreversibly inhibiting their refilling FIG. 10 illustrates representative traces in which thapsigargin was added to untreated and TNF-α treated cells from control and IDDM donors. […] Potential mechanisms include alterations in modulation of Ca^2+-ATPase activity, changes in the ATPase itself or alterations in intraluminal signaling.

The test system of assay [3] is calreticulin. Put plainly: Western blot of calreticulin expression in fibroblasts. Particulars: 24 hr of TNF-α treatment. The source says: Although TNF-α is known to turn on a multitude of genes in many different cell types, including the fibroblast (Tessier et al. (1993) Arthritis & Rheumatism 36:1528-1539; Rathanaswami et al. (1993) Arthritis & Rheumatism 36:1295-1304; Butler et al. (1994) Eur. Cytokine Network 5:441-448), it is possible that new protein synthesis is required to replete a component of the signal transduction apparatus that is constantly being turned over.

Where only a bound is given, the exact number is not on record here.

Consider `O=C(O)CN(CCOCCOCCN(CC(=O)O)CC(=O)O)CC(=O)O` [EGTA, reference compound], for which the “effect on final [Ca2+]i after bradykinin” value in assay [1] (2 mM EGTA added 10 seconds prior to 200 nM bradykinin) was “eliminate the increase in final [Ca^2+]I”. Further, the “effect on peak bradykinin response” value in assay [1] (2 mM EGTA added 10 seconds prior to 200 nM bradykinin, untreated and TNF-α treated cells) is “unaltered”.

On to `C[C@@H]1C[C@@H]([C@H](O)CC2CC(=O)NC(=O)C2)C(=O)[C@@H](C)C1` [cycloheximide, reference compound], for which the “effect on TNF-α induced increment in bradykinin response” value in assay [1] (protein synthesis inhibitor given with TNF-α) was “blocked the TNF-α induced increment”.

With `CCCCCCCC/C=C\CCCCCCCC(=O)O` [oleate, oleic acid], in assay [1] (2 mM oleate with 11 mM glucose, 3 control and 4 diabetic donors, ANOVA p<0.001), the “effect on peak bradykinin response (% of 5.6 mM glucose)” value is recorded as “significant effects”. Besides, the “effect on steady state [Ca2+]i following bradykinin stimulation” value in assay [1] (2 mM oleic acid with 11 mM glucose, 3 control and 4 diabetic donors, p<0.001) was “significant effect”.

Consider `C/C=C(/C)C(=O)O[C@H]1C(C)=C2[C@H]([C@@H]1OC(=O)CCCCCCC)[C@@](C)(OC(C)=O)C[C@H](OC(=O)CCC)[C@@]1(O)[C@H]2OC(=O)[C@@]1(C)O` [thapsigargin, reference compound], for which the “effect of thapsigargin on cytosolic Ca2+” value in assay [2] (untreated and TNF-α treated cells) is on record as “transient rise of cytosolic Ca^2+”.

As to TNF-α, the “effect of TNF-α on thapsigargin-induced Ca2+ transients” value in assay [2] (TNF-α treated versus untreated fibroblasts) is “greater in TNF-α treated fibroblasts than in untreated cells”. Also, the “effect on calreticulin expression” value in assay [3] is on record as “no change in calreticulin expression”. Also, the “treatment time at which maximum TNF-α induced increment in peak bradykinin response is achieved” value in assay [1] (10 ng/ml TNF-α, 3 donors, not diminished by 48 hr) is no more than 24 h. Also, the “TNF-α induced increment in bradykinin-induced Ca2+ mobilization, diabetic cells versus control cells” value in assay [1] (TNF-α 10 ng/ml for 24 hours, 7 control and 10 diabetic donors) stood at 3 fold. The “effect on steady state Ca2+ following the bradykinin response” value in assay [1] (TNF-α 10 ng/ml for 24 hours, control and diabetic donors, ANOVA p<0.001) is recorded as “significant elevations of steady state Ca^2+”. Also, the “effect on bradykinin-induced Ca2+ mobilization” value in assay [1] (TNF-α 10 ng/ml, 24 hour incubation, 20 nM bradykinin, control and diabetic donors) is on record as “potentiated bradykinin-induced Ca^2+ mobilization”. The “treatment time from which increases in bradykinin-induced Ca2+ mobilization were observed” value in assay [1] (TNF-α 10 ng/ml, bradykinin 1 nM to 1 μM, controls and diabetics) is no less than 1 h. The “effect on basal intracellular Ca2+” value in assay [1] (TNF-α 10 ng/ml, p<0.05) is recorded as “significant increase in basal Ca^2+ in diabetic but not control cells”. The “effect on peak bradykinin response in control donors, diabetic milieu experiment” value in assay [1] (control donors, 48 hours FFA medium, TNF-α final 24 hours, data not shown) is “little or no effect”.
